# Results published in ChEMBL document CHEMBL1201862, “PubChem BioAssay data set” (2004).
#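 Each compound was tested at five concentrations against cells in 96-well plates for 48 hours. GI50: concentration for 50% inhibition of growth.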 Active and inactive are the calls of the source. Cut-off read from the data, not from the text of the source: active = GI50 up to about 1.1 µM and inactive = higher.
# Legend:
# Experiment in all cases: NCI anticancer screen, dose series, 48 h
# [1] = tested on: 786-0
# [2] = tested on: A498
# [3] = tested on: ACHN
# [4] = tested on: CAKI-1
# [5] = tested on: CCRF-CEM
# [6] = tested on: COLO 205
# [7] = tested on: DU-145
# [8] = tested on: EKVX
# [9] = tested on: HCC 2998
# [10] = tested on: HCT-15
# [11] = tested on: HL-60
# [12] = tested on: HOP-62
# [13] = tested on: HOP-92
# [14] = tested on: HT-29
# [15] = tested on: Hs-578T
# [16] = tested on: IGROV-1
# [17] = tested on: K562
# [18] = tested on: KM12
# [19] = tested on: LOX IMVI
# [20] = tested on: M14
# [21] = tested on: MCF7
# [22] = tested on: MDA-MB-231
# [23] = tested on: MDA-MB-435
# [24] = tested on: MDA-N
# [25] = tested on: MOLT-4
# [26] = tested on: Malme-3M
# [27] = tested on: NCI-H226
# [28] = tested on: NCI-H23
# [29] = tested on: NCI-H460
# [30] = tested on: NCI-H522
# [31] = tested on: NCI/ADR-RES
# [32] = tested on: OVCAR-3
# [33] = tested on: OVCAR-4
# [34] = tested on: OVCAR-5
# [35] = tested on: OVCAR-8
# [36] = tested on: PC-3
# [37] = tested on: RPMI-8226
# [38] = tested on: RXF 393
# [39] = tested on: SF-268
# [40] = tested on: SF-295
# [41] = tested on: SF-539
# [42] = tested on: SK-MEL-28
# [43] = tested on: SK-MEL-2
# [44] = tested on: SK-MEL-5
# [45] = tested on: SK-OV-3
# [46] = tested on: SN12C
# [47] = tested on: SNB-19
# [48] = tested on: SNB-75
# [49] = tested on: SR
# [50] = tested on: SW-620
# [51] = tested on: T47D
# [52] = tested on: TK-10
# [53] = tested on: U-251
# [54] = tested on: UACC-257
# [55] = tested on: UO-31
# [56] = tested on: A549
# [57] = tested on: HCT-116
# [58] = tested on: UACC-62
compound,measurement,setting,value
CC(=O)OC12c3ccccc3-c3ccccc3C1C1C(=O)OC(=O)C12 (stereo unspecified),GI50,[1],> 10 µM (inactive)
same,GI50,[2],> 10 µM (inactive)
same,GI50,[3],> 10 µM (inactive)
same,GI50,[4],> 10 µM (inactive)
same,GI50,[5],> 10 µM (inactive)
same,GI50,[6],> 10 µM (inactive)
same,GI50,[7],> 10 µM (inactive)
same,GI50,[8],> 10 µM (inactive)
same,GI50,[9],> 10 µM (inactive)
same,GI50,[10],> 10 µM
same,GI50,[11],> 10 µM (inactive)
same,GI50,[12],> 10 µM (inactive)
same,GI50,[13],> 10 µM (inactive)
same,GI50,[14],> 10 µM (inactive)
same,GI50,[15],> 10 µM (inactive)
same,GI50,[16],> 10 µM (inactive)
same,GI50,[17],> 10 µM (inactive)
same,GI50,[18],> 10 µM (inactive)
same,GI50,[19],> 10 µM (inactive)
same,GI50,[20],> 10 µM (inactive)
same,GI50,[21],> 10 µM (inactive)
same,GI50,[22],> 10 µM (inactive)
same,GI50,[23],> 10 µM (inactive)
same,GI50,[24],> 10 µM (inactive)
same,GI50,[25],> 10 µM (inactive)
same,GI50,[26],> 10 µM (inactive)
same,GI50,[27],> 10 µM (inactive)
same,GI50,[28],> 10 µM (inactive)
same,GI50,[29],> 10 µM (inactive)
same,GI50,[30],> 10 µM (inactive)
same,GI50,[31],> 10 µM (inactive)
same,GI50,[32],> 10 µM (inactive)
same,GI50,[33],> 10 µM (inactive)
same,GI50,[34],> 10 µM (inactive)
same,GI50,[35],> 10 µM (inactive)
same,GI50,[36],> 10 µM (inactive)
same,GI50,[37],> 10 µM (inactive)
same,GI50,[38],> 10 µM (inactive)
same,GI50,[39],> 10 µM (inactive)
same,GI50,[40],> 10 µM (inactive)
same,GI50,[41],> 10 µM (inactive)
same,GI50,[42],> 10 µM (inactive)
same,GI50,[43],> 10 µM (inactive)
same,GI50,[44],> 10 µM (inactive)
same,GI50,[45],> 10 µM (inactive)
same,GI50,[46],> 10 µM (inactive)
same,GI50,[47],> 10 µM (inactive)
same,GI50,[48],> 10 µM (inactive)
same,GI50,[49],> 10 µM (inactive)
same,GI50,[50],> 10 µM (inactive)
same,GI50,[51],> 10 µM (inactive)
same,GI50,[52],> 10 µM (inactive)
same,GI50,[53],> 10 µM (inactive)
same,GI50,[54],> 10 µM (inactive)
same,GI50,[55],> 10 µM (inactive)
Cc1ccc(S(=O)(=O)NNC(=O)Nc2cccc(C(F)(F)F)c2)cc1,GI50,[1],> 100 µM (inactive)
same,GI50,[2],> 100 µM (inactive)
same,GI50,[56],> 100 µM (inactive)
same,GI50,[3],58.5 µM (inactive)
same,GI50,[4],> 100 µM (inactive)
same,GI50,[5],96.2 µM (inactive)
same,GI50,[6],> 100 µM (inactive)
same,GI50,[7],> 100 µM (inactive)
same,GI50,[8],> 100 µM (inactive)
same,GI50,[9],> 100 µM (inactive)
same,GI50,[57],97.1 µM (inactive)
same,GI50,[10],89.1 µM
same,GI50,[11],> 100 µM (inactive)
same,GI50,[12],> 100 µM (inactive)
same,GI50,[13],> 100 µM (inactive)
same,GI50,[14],> 100 µM (inactive)
same,GI50,[15],> 100 µM (inactive)
same,GI50,[16],> 100 µM (inactive)
same,GI50,[17],67.6 µM (inactive)
same,GI50,[18],57.3 µM (inactive)
same,GI50,[20],> 100 µM (inactive)
same,GI50,[21],97.1 µM (inactive)
same,GI50,[22],> 100 µM (inactive)
same,GI50,[23],> 100 µM (inactive)
same,GI50,[24],> 100 µM (inactive)
same,GI50,[25],> 100 µM (inactive)
same,GI50,[26],> 100 µM (inactive)
same,GI50,[27],44.7 µM (inactive)
same,GI50,[28],> 100 µM (inactive)
same,GI50,[29],> 100 µM (inactive)
same,GI50,[30],38.4 µM (inactive)
same,GI50,[31],61.8 µM (inactive)
same,GI50,[33],0.0653 µM (active)
same,GI50,[34],> 100 µM (inactive)
same,GI50,[35],> 100 µM (inactive)
same,GI50,[36],36.4 µM (inactive)
same,GI50,[37],> 100 µM (inactive)
same,GI50,[38],85.7 µM (inactive)
same,GI50,[39],> 100 µM (inactive)
same,GI50,[40],> 100 µM (inactive)
same,GI50,[41],> 100 µM (inactive)
same,GI50,[42],> 100 µM (inactive)
same,GI50,[43],> 100 µM (inactive)
same,GI50,[44],33.3 µM (inactive)
same,GI50,[45],> 100 µM (inactive)
same,GI50,[46],> 100 µM (inactive)
same,GI50,[47],> 100 µM (inactive)
same,GI50,[48],0.0284 µM (active)
same,GI50,[49],> 100 µM (inactive)
same,GI50,[50],> 100 µM (inactive)
same,GI50,[51],> 100 µM (inactive)
same,GI50,[52],> 100 µM (inactive)
same,GI50,[53],96.8 µM (inactive)
same,GI50,[54],57.9 µM (inactive)
same,GI50,[58],> 100 µM (inactive)
same,GI50,[55],99.1 µM (inactive)
